± gives the expanded uncertainty stated by the source.
Assay: xn = mol fraction of the nth substance listed
Conditions: 101 kPa, Liquid; for speed of sound: Sing-around technique in a fixed-path interferometer; for mass density: Vibrating tube method; for viscosity: Falling or rolling sphere viscometry

CC12CCC(CC1)C(C)(C)O2 [1,3,3-trimethyl-2-oxabicyclo[2.2.2]octane] + CCCCCCCC
Conditions | mass density, 298.15 K [kg/m3] | mass density, 318.15 K [kg/m3] | mass density, 338.15 K [kg/m3] | speed of sound, 298.15 K [m/s] | speed of sound, 318.15 K [m/s] | speed of sound, 338.15 K [m/s] | viscosity, 318.15 K [mPa·s] | viscosity, 338.15 K [mPa·s]
x1 = 0.1046 | 722.35 ± 0.18 | 705.93 ± 0.18 | 689.16 ± 0.19 | 1180.9 ± 1.3 | 1099.7 ± 1.3 | 1020.2 ± 1.2 | 0.48 ± 0.04 | 0.41 ± 0.04
x1 = 0.199 | 743.56 ± 0.18 | 727.08 ± 0.18 | 710.27 ± 0.19 | 1188.5 ± 1.3 | 1108.1 ± 1.3 | 1029.6 ± 1.3 | 0.53 ± 0.04 | 0.44 ± 0.04
x1 = 0.2987 | 765.86 ± 0.18 | 749.32 ± 0.18 | 732.46 ± 0.19 | 1197.5 ± 1.3 | 1117.9 ± 1.3 | 1040.3 ± 1.3 | 0.58 ± 0.04 | 0.48 ± 0.04
x1 = 0.4008 | 788.62 ± 0.18 | 772.01 ± 0.18 | 755.1 ± 0.19 | 1207.3 ± 1.4 | 1128.3 ± 1.3 | 1051.6 ± 1.3 | 0.66 ± 0.04 | 0.54 ± 0.04
x1 = 0.4955 | 809.62 ± 0.18 | 792.93 ± 0.19 | 775.96 ± 0.19 | 1216.9 ± 1.4 | 1138.3 ± 1.4 | 1062.3 ± 1.4 | 0.74 ± 0.04 | 0.6 ± 0.04
x1 = 0.5939 | 831.35 ± 0.19 | 814.56 ± 0.19 | 797.55 ± 0.19 | 1227.7 ± 1.4 | 1149.5 ± 1.4 | 1073.8 ± 1.4 | 0.85 ± 0.04 | 0.68 ± 0.04
x1 = 0.6971 | 854.05 ± 0.2 | 837.17 ± 0.2 | 820.1 ± 0.2 | 1239.8 ± 1.4 | 1162.3 ± 1.4 | 1087.4 ± 1.4 | 1 ± 0.04 | 0.78 ± 0.04
x1 = 0.7985 | 876.24 ± 0.21 | 859.26 ± 0.21 | 842.12 ± 0.21 | 1252.4 ± 1.5 | 1175.6 ± 1.5 | 1101.4 ± 1.4 | 1.18 ± 0.04 | 0.9 ± 0.04
x1 = 0.8939 | 897.03 ± 0.22 | 879.92 ± 0.22 | 862.72 ± 0.22 | 1264.9 ± 1.5 | 1188.3 ± 1.5 | 1114.5 ± 1.5 | 1.4 ± 0.04 | 1.05 ± 0.04
x1 = 1 | 920.04 ± 0.23 | 902.84 ± 0.23 | 885.57 ± 0.23 | 1278.4 ± 1.5 | 1201 ± 1.5 | 1126.7 ± 1.5 | 1.73 ± 0.04 | 1.27 ± 0.04

— the NIST ThermoML archive (doi:10.1016/j.fluid.2016.08.035)
